pIC50, pKd: −log10 of the molar value. Like-named read-outs stand apart in the source and are kept apart here. Numbered stars: 1 amine (or outer) side, 2 acyl side, 3 side chain; on linkers, the order of the positions; unused ones are H or OH. Bridge positions count the residues as written; N and C are the ends. Square brackets hold non-standard residues; d marks the D form. Peptide text beside a SMILES is read from it. * marks the point of attachment. Trp(βS-Me,7-OMe) = COc1cccc2c([C@H](C)[C@H](N)C(=O)O)c[nH]c12; dPro(trans-4-NMe3+) = C[N+](C)(C)[C@@H]1CN[C@@H](C(=O)O)C1; Phe(4-SO2NH2) = N[C@@H](Cc1ccc(S(N)(=O)=O)cc1)C(=O)O; Trp(7-CN) = N#Cc1cccc2c(C[C@H](N)C(=O)O)c[nH]c12; Trp(7-Cl) = N[C@@H](Cc1c[nH]c2c(Cl)cccc12)C(=O)O; Phe(4-CONH2) = NC(=O)c1ccc(C[C@H](N)C(=O)O)cc1; Phe(4-COOH) = N[C@@H](Cc1ccc(C(=O)O)cc1)C(=O)O; 4Pal(3S-Me) = C[C@@H](c1ccncc1)[C@H](N)C(=O)O; Trp(7-aza) = N[C@@H](Cc1c[nH]c2ncccc12)C(=O)O; Phe(4-CH2NH2) = NCc1ccc(C[C@H](N)C(=O)O)cc1; Pip(5R-OH) = O=C(O)[C@@H]1CC[C@@H](O)CN1; αMeW = C[C@](N)(Cc1c[nH]c2ccccc12)C(=O)O; X1 = O=C([C@@H]1CC[C@H](N[*:1])C1)[*:2]; X35 = CC(C)(N)[C@H](N[*:1])C(=O)[*:2]; Pip(4-aza) = O=C(O)[C@@H]1CNCCN1; 4Pal = N[C@@H](Cc1ccncc1)C(=O)O; NMeE = CN[C@@H](CCC(=O)O)C(=O)O; X36 = C[C@@H](C(=O)[*:1])[*:2]; αMeS = C[C@](N)(CO)C(=O)O; Carboxymethyl = O=C(O)C*; Nle = CCCC[C@H](N)C(=O)O; Dab = NCC[C@H](N)C(=O)O; Sar = CNCC(=O)O

IC50 and Kd data for five compounds are collected here from US20240287138A1, “CYCLIC PEPTIDES FOR INHIBITING TNF RECEPTOR 1 ACTIVITY” (Merck Sharp & Dohme LLC, priority 2023, published 2024).

The target in experiment [1] is T1, human soluble TNFR1 (sTNFR1) (Homo sapiens, UniProt P19438).
T1 construct: made in house; host or cells: Sf21 (baculovirus)
T1 sequence (P19438 with tags, fused parts or gaps): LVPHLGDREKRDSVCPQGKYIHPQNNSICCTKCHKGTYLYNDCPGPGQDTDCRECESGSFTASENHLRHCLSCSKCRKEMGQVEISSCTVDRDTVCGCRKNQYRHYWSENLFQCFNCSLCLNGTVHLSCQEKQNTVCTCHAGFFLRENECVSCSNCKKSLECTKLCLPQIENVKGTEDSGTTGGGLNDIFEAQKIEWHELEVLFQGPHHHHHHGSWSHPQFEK
Description: Human sTNFR1-peptide displacement assay (LanthaScreen Eu TR-FRET binding assay). Summed up: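 Readout is the 665/615 nm TR-FRET ratio (Eu anti-His donor, streptavidin-Alexa647 acceptor), normalized to DMSO and saturating displacer, fit by Morrison-based five-parameter logistic for Kd^app. His-tagged sTNFR1 (1-211) prebound to 100 nM biotinylated peptide SEQ ID NO.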

Experiment [2] concerns the target T2, TNFα-induced NF-κB signal transduction pathway (TNFR1 signaling) in THP-1 cells (Homo sapiens, UniProt P19438).
T2 sequence (P19438 30-455): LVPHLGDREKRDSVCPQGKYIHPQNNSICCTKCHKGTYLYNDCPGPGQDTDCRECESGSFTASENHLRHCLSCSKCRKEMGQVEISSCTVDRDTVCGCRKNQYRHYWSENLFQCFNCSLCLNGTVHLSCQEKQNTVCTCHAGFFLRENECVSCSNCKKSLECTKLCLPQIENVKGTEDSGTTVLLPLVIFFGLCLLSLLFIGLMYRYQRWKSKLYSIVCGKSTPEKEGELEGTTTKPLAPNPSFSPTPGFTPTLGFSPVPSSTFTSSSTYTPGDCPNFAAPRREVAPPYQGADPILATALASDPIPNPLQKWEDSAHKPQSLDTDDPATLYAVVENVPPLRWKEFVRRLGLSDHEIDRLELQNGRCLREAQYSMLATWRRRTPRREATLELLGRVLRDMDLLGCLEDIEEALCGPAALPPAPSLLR
Description: THP-1 Lucia NF-κB reporter cell assay, inhibition of TNFα-induced NF-κB signaling. The format is cell-based. The following applies: THP-1 NF-κB Lucia reporter cells, 10 ng/mL TNFα, 16-18 h, secreted luciferase; read-out: THP-1 IC50. Summed up: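 Macrocyclic peptides were preincubated 1 h at 37 °C with THP-1 NF-κB-Lucia reporter cells (20,000 cells/well) in antibiotic-free RPMI 1640/10% FBS, then stimulated with 10 ng/mL human TNFα overnight (16-18 h). Secreted luciferase in supernatant was read by luminescence; IC50 from 4-parameter logistic fits.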

For orientation: pIC50 means the negative decadic logarithm of the IC50, by convention in mol/L. The term pKd denotes the Kd on a negative log10 scale, so that one unit is a factor of ten. Turning to `CCCC[C@@H]1NC(=O)CSC[C@@H](C(N)=O)NC(=O)[C@H]([C@@H](C)c2c[nH]c3c(OC)cccc23)NC(=O)CN(C)C(=O)[C@H](Cc2ccc(C(=O)O)cc2)NC(=O)[C@H](Cc2ccc(C(=O)O)cc2)NC(=O)[C@](C)(CO)NC(=O)[C@H](Cc2c[nH]c3c(Cl)cccc23)NC(=O)[C@H](Cc2ccncc2)NC(=O)[C@H](CC(N)=O)NC(=O)[C@H](CCC(=O)O)N(C)C(=O)[C@H](Cc2c[nH]c3ccccc23)NC(=O)[C@@H]2CNCCN2C(=O)[C@H](Cc2ccncc2)NC1=O` [SEQ ID NO. 251] ({CH2CO}-[Nle][4Pal][Pip(4-aza)]W[NMeE]N[4Pal][Trp(7-Cl)][αMeS][Phe(4-COOH)][Phe(4-COOH)][Sar][Trp(βS-Me,7-OMe)]C-NH2; thioether N-14), the pIC50 was 9.30 in experiment [1] and 8.57 in experiment [2]. This compound also had a pKd in experiment [1] of 8.93.

Turning to `CCCC[C@@H]1NC(=O)CSC[C@@H](C(N)=O)NC(=O)[C@H]([C@@H](C)c2c[nH]c3c(OC)cccc23)NC(=O)CN(C)C(=O)[C@H](Cc2ccc(O)cc2)NC(=O)[C@H](Cc2ccc(C(=O)O)cc2)NC(=O)[C@](C)(CO)NC(=O)[C@H](Cc2c[nH]c3c(Cl)cccc23)NC(=O)[C@H]([C@@H](C)c2ccncc2)NC(=O)[C@H](CC(N)=O)NC(=O)[C@H](CCC(=O)O)N(C)C(=O)[C@H](Cc2c[nH]c3ccccc23)NC(=O)[C@H](CO)NC(=O)[C@H](Cc2ccc(CN)cc2)NC1=O` [SEQ ID NO. 252] ({CH2CO}-[Nle][Phe(4-CH2NH2)]SW[NMeE]N[4Pal(3S-Me)][Trp(7-Cl)][αMeS][Phe(4-COOH)]Y[Sar][Trp(βS-Me,7-OMe)]C-NH2; thioether N-14), the negative logarithm of the IC50 (pIC50) was 8.62 in experiment [1] and 7.63 in experiment [2].

For the compound `CCCC[C@@H]1NC(=O)[C@@H]2CC[C@@H](C2)NC(=O)[C@H]([C@@H](C)c2c[nH]c3c(OC)cccc23)NC(=O)CN(C)C(=O)[C@H](Cc2ccc(OCC(=O)O)cc2)NC(=O)[C@H](Cc2ccc(S(N)(=O)=O)cc2)NC(=O)[C@](C)(CO)NC(=O)[C@H](Cc2c[nH]c3c(C#N)cccc23)NC(=O)[C@H](Cc2ccc(OCC(=O)O)cc2)NC(=O)[C@H](CC(N)=O)NC(=O)[C@H]2C[C@H]([N+](C)(C)C)CN2C(=O)[C@H](Cc2c[nH]c3ncccc23)NC(=O)[C@@H]2CC[C@@H](O)CN2C(=O)[C@H](Cc2ccncc2)NC1=O` [SEQ ID NO. 257] (cyclo([4Pal][Pip(5R-OH)][Trp(7-aza)][dPro(trans-4-NMe3+)]NY(Carboxymethyl)[Trp(7-CN)][αMeS][Phe(4-SO2NH2)]Y(Carboxymethyl)[Sar][Trp(βS-Me,7-OMe)][X1][Nle])), in experiment [1] (displacement of biotinylated peptide SEQ ID NO. 1 from sTNFR1, 20 point titration, 5-parameter fit based on Morrison equation (tight binding), read-out: TR-FRET Kd^app), the pKd is 10.10. In addition, the pIC50 in experiment [2] was 9.40.

In experiment [1], `CCCC[C@@H]1NC(=O)[C@H](C)SC[C@@H](C(N)=O)NC(=O)[C@H]([C@@H](C)c2c[nH]c3c(OC)cccc23)NC(=O)CN(C)C(=O)[C@H](Cc2ccc(O)cc2)NC(=O)[C@H](Cc2ccc(C(N)=O)cc2)NC(=O)[C@](C)(CO)NC(=O)[C@H](Cc2c[nH]c3c(Cl)cccc23)NC(=O)[C@H](Cc2ccncc2)NC(=O)[C@H](CC(N)=O)NC(=O)[C@H](CCC(=O)O)N(C)C(=O)[C@H](Cc2c[nH]c3ncccc23)NC(=O)[C@H](C(C)(C)N)NC(=O)[C@H](Cc2ccncc2)NC1=O` [SEQ ID NO. 273] ([Nle][4Pal][X35][Trp(7-aza)][NMeE]N[4Pal][Trp(7-Cl)][αMeS][Phe(4-CONH2)]Y[Sar][Trp(βS-Me,7-OMe)]C-NH2; linker N-14 via X36) showed a pIC50 of 9.22 and a pKd of 9.48. The pIC50 in experiment [2] was 8.39.

Take `CCCC[C@@H]1NC(=O)CSC[C@@H](C(N)=O)NC(=O)[C@](C)(Cc2c[nH]c3ccccc23)NC(=O)CN(C)C(=O)[C@H](Cc2ccc(O)cc2)NC(=O)[C@H](Cc2ccc(C(=O)O)cc2)NC(=O)[C@](C)(CO)NC(=O)[C@H](Cc2c[nH]c3c(Cl)cccc23)NC(=O)[C@H](Cc2ccncc2)NC(=O)[C@H](CC(N)=O)NC(=O)[C@H](CCC(=O)O)N(C)C(=O)[C@H](Cc2c[nH]c3ncccc23)NC(=O)[C@H](CCN)NC(=O)[C@H](Cc2ccncc2)NC1=O` [SEQ ID NO. 277] ({CH2CO}-[Nle][4Pal][Dab][Trp(7-aza)][NMeE]N[4Pal][Trp(7-Cl)][αMeS][Phe(4-COOH)]Y[Sar][αMeW]C-NH2; thioether N-14): the pIC50 was 8.95 in experiment [1] and 8.52 in experiment [2].
